Data published in PMC5889558, “The inhibition of human lung fibroblast proliferation and differentiation by Gs-coupled receptors is not predicted by the magnitude of cAMP response” (Respiratory Research, 2018).
Read-outs that look alike come from different tables or passages of the source.

What was measured:
Type in all cases: cell-based
[1] = system: human lung fibroblasts (HLF); test: Fibroblast to myofibroblast transdifferentiation (FMT), αSMA immunofluorescence, TGFβ-driven; details: data not shown
[2] = system: human lung fibroblasts (HLF); test: Cell viability assay, caspase-3/7 as marker of apoptosis; details: human, 24 h
Protocol: Cell viability was measured using caspase-3/7 expression as a marker of apoptosis after treatment for 24 h with test compounds. HLF were seeded overnight at 6,000 cells/well in 96-well black ViewPlates, before being starved for 24 hours in culture medium devoid of FBS. Cells were incubated for 24 hours in the presence of test compounds at the top concentrations used in the proliferation assays, or in the presence of 100 nM staurosporine to induce apoptosis.
The presence of the apoptotic marker caspase-3/7 was detected by incubating cells with 8 μM CellEvent™ Caspase-3/7 Red Detection Reagent in dPBS with 5 % FBS, for 30 minutes at 37°C. […] Images were analyzed using a multi wavelength cell scoring algorithm within the MetaXpress 5.3 software, which measures cell number using stained nuclei, and percent of these cells positive for caspase-3/7 from Cy5 readouts. To account for the inter-assay variation in levels of caspase 3/7 detected in each experiment, data were normalized to the staurosporine response.
Statistical significance across treatment groups was determined by using the one-way ANOVA with Dunnett’s multiple-comparison post hoc test.

[3] = system: human lung fibroblasts (HLF); test: HLF proliferation by BrdU incorporation (DELFIA), driven by FBS or PDGF; details: Homo sapiens, Fibroblast, inhibition of BrdU incorporation, 24 h, NC = not calculated due to incomplete curve; for EC50: mean ± SEM
Protocol: Proliferation of HLF was measured by incorporation of bromodeoxyuridine (BrdU). HLF were seeded overnight at 4000 cells/well in 96-well black ViewPlates, before being starved for 24 h in culture medium devoid of FBS. Proliferation was measured after incubation with a range of concentrations of FBS or PDGF, in DMEM supplemented with 0.1% w/v HSA, for 24 h.
For anti-remodelling assays using BrdU incorporation, cells were incubated for 24 h with a range of concentrations of test compounds in the presence of near maximal concentrations of FBS or PDGF in DMEM supplemented with 0.1% w/v HSA. Proliferation was assessed using the DELFIA BrdU incorporation assay kit following manufacturer protocol. Fluorescence was measured using a Packard EnVision plate reader. To account for the inter-assay variation in levels of proliferation in each experiment, data were normalized to the PDGF or FBS response.

[4] = system: human lung fibroblasts (HLF); test: PDGF-mediated ERK phosphorylation (pERK imaging); details: 30 min pre-incubation, 3 ng/mL PDGF for 10 min
Protocol: HLF were seeded overnight at 6000 cells/well in 96-well black clear bottom plates then starved for 24 h in the growth medium devoid of all additives. […] Fluorescence was then quantified on the InCell2000, using DAPI settings to visualize nuclei (0.1 s exp) and FITC settings for pERK (2 s exp). To quantify levels of pERK fluorescence, a standard Multi-Target Analysis algorithm was used in the INCell Analyzer Workstation (v3.7.1). To account for the inter-assay variation in levels of ERK phosphorylation produced in each experiment, data were normalized to the EC80 PDGF response.

[5] = system: human lung fibroblasts (HLF); test: Fibroblast to myofibroblast transdifferentiation (FMT), αSMA immunofluorescence, TGFβ-driven; details: 48 h, TGFβ 0.3 ng/mL
Protocol: To assess the differentiation of fibroblasts to the myofibroblast phenotype, immunofluorescence was used to monitor increases in α smooth muscle actin (αSMA). HLF were seeded overnight at 1000 cells/well in 384-well black clear bottom plates, before being starved for 24 h growth medium devoid of FBS.
For anti-remodelling assays using FMT, cells were incubated for 48 h with a range of concentrations of test compounds and incubated for 48 h, at 37°C, 5% CO2 in the presence of a near maximal concentration of TGFβ (0.3 ng/mL), to promote differentiation in DMEM supplemented with 0.1% w/v HSA. Following stimulation, cells were fixed in 4% paraformaldehyde, washed 3× in PBS (with Ca^2+/Mg^2+), and incubated with permeabilising blocking buffer (dPBS (with Ca^2+/Mg^2+), 10% FBS (v/v), 0.1% Triton X-100 (v/v)) for 1 h at 37°C. Wells were then washed 3× in wash buffer (Tris Buffered Saline (TBS), 0.05% (v/v) Tween-20) and incubated with mouse anti-α SMA (1:1000 dilution in permeabilising blocking buffer) for 1 h at room temperature, with gentle shaking. Following 3× wash in wash buffer, wells were incubated with blocking buffer containing Hoechst to stain for nuclear DNA (2 μM), and FITC-conjugated Affini-pure goat […] IgG (1:1000 dilution in blocking buffer) for 30 min at 37°C. Fluorescence was then quantified on a widefield ImageXpress Micro microscope, with a Plan Fluor 20X objective, DAPI filter cube (excitation 400–418 nm, emission 435–470 nm), 50 ms exposure time for nuclei, and FITC filter cube (excitation 467–498 nm, emission 513–556 nm), 200 ms exposure time for αSMA.
To quantify increases in αSMA fluorescence, a standard Multi-Wavelength Cell Scoring algorithm was used in MetaXpress 5.3 software (Molecular Devices, California, USA). To account for the inter-assay variation in levels of αSMA expression produced in each experiment, data were normalized to the response to TGFβ.

Row | Molecule | EC50 for promoting FMT [1] | % cells positive for caspase-3/7, 1:10 dilution ([2]; 3 μM) | % cells positive for caspase-3/7, Top conc ([2]; 30 μM) | Emax ([3]; EC80 PDGF, percentage of maximal proliferation observed with PDGF, read-out: Proliferation vs PDGF Emax (% max)) | EC50 ([3]; EC80 concentration of PDGF, read-out: Proliferation vs PDGF pEC50 (converted)) | EC50 ([3]; EC80 concentration of serum, read-out: Proliferation vs serum pEC50 (converted)) | Emax ([3]; EC80 serum, percentage of maximal proliferation observed with serum, read-out: Proliferation vs serum Emax (% max)) | inhibition of PDGF-mediated ERK phosphorylation (in words) [4] | inhibition of TGFβ-driven FMT (in words) [5]
1 | Transforming growth factor β [TGFβ] | 0.07 ± 0.01 ng/mL | – | – | – | – | – | – | – | –
2 | C=C[C@@]1(C)CC(=O)[C@]2(O)[C@@]3(C)[C@@H](O)CCC(C)(C)[C@@H]3[C@H](O)[C@H](OC(C)=O)[C@@]2(C)O1 [Forskolin] | – | 0.61 ± 0.15% | 1.26 ± 0.35% | 90.8 ± 9.12% | 1.05 µM | 5.25 µM | 74 ± 6.7% | inhibited PDGF-mediated ERK phosphorylation | completely inhibit FMT
